Test results published in ChEMBL document CHEMBL1201862, “PubChem BioAssay data set” (2004).
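Dose response: 5 concentrations. Exposure: 48 h. Format: 96-well plates. Endpoint: linear interpolation; highest concentration if not reached. Abbreviation: GI50, concentration required for 50% inhibition of growth.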 Calls of active or inactive are those of the source. No stated cut-off is given here; in the data, active = GI50 up to about 1.1 µM and inactive = higher.

Tests used:
Assay in all cases: NCI-60 cell line screen, 48 h
[1] = test system: 786-0
[2] = test system: A549
[3] = test system: DU-145
[4] = test system: EKVX
[5] = test system: HCC 2998
[6] = test system: HL-60
[7] = test system: M14
[8] = test system: MCF7
[9] = test system: MDA-MB-231
[10] = test system: NCI/ADR-RES
[11] = test system: PC-3
[12] = test system: SF-295
[13] = test system: SR
[14] = test system: SW-620
[15] = test system: UACC-257
[16] = test system: UACC-62

Measured: GI50

N#Cc1c(NCCc2ccc(F)cc2)c2ccccc2n2c1nc1ccccc12
inactive: [1] 4.46 µM | [2] 33.7 µM | [3] 19.6 µM | [4] 10.2 µM | [5] 40.3 µM | [6] > 100 µM | [7] 42 µM | [8] 6.34 µM | [9] 10 µM | [10] 12.3 µM | [11] 13 µM | [12] 10.7 µM | [13] > 100 µM | [14] 75 µM | [15] 40.4 µM | [16] 7.6 µM

COC(=O)C1=C(O)CCCC(C2CCCCC(=O)C2C(=O)OC)=C1 (stereo not given)
inactive: [1] 37.8 µM | [2] 44.3 µM | [3] 29.9 µM | [4] 67.3 µM | [5] 33.5 µM | [7] > 100 µM | [8] 22.6 µM | [9] 46.5 µM | [10] > 100 µM | [11] 63.4 µM | [12] 48 µM | [13] 24.7 µM | [14] 81.8 µM | [15] 52.1 µM | [16] 19.4 µM

O=C1/C(=C/c2cccc([N+](=O)[O-])c2)N=C(c2ccccc2)N1c1nc2c(Cl)cc(Cl)cc2s1
inactive: [1] 31.4 µM | [2] 21.1 µM | [3] 27 µM | [4] 15.5 µM | [5] 27.5 µM | [6] 21.7 µM | [7] 21.8 µM | [8] 23.9 µM | [9] 29.4 µM | [10] 28.4 µM | [11] 24 µM | [12] 33.6 µM | [13] 16.8 µM | [14] 25.5 µM | [15] 30.1 µM | [16] 29.2 µM

c1ccc2c(c1)c1c(n2CCOCCN2CCOCC2)CCCC1
inactive: [1] > 10 µM | [2] 45.2 µM | [3] > 100 µM | [4] 30.9 µM | [5] > 10 µM | [6] 20 µM | [7] 12.4 µM | [8] 38.8 µM | [9] 17.3 µM | [10] 16.3 µM | [11] 24.7 µM | [12] 23.9 µM | [13] 30.3 µM | [14] 34.1 µM | [15] 21.1 µM

Cc1cc2c(cc1-c1cc3c(cc1C)C(C(C)C)=C(O)C(=O)/C3=C\Nc1nc(-c3ccccc3)cs1)/C(=C/Nc1nc(-c3ccccc3)cs1)C(=O)C(O)=C2C(C)C
inactive: [1] 21.8 µM | [2] 19.1 µM | [3] 23.7 µM | [4] 18.2 µM | [6] 25.7 µM | [7] 12.9 µM | [8] 18.1 µM | [9] 10.8 µM | [10] 26.1 µM | [11] 15.7 µM | [12] 15.6 µM | [13] 32.5 µM | [14] 15.6 µM | [15] 21.8 µM | [16] 16.7 µM

CC1(C)C(=S)C(C)(C)C1=S
inactive: [1] > 100 µM | [2] > 100 µM | [3] > 100 µM | [4] > 100 µM | [5] > 100 µM | [7] > 100 µM | [8] > 100 µM | [9] > 100 µM | [10] > 100 µM | [11] > 100 µM | [13] > 100 µM | [14] > 100 µM | [15] > 100 µM | [16] > 100 µM

N/C(S)=N/N=C/c1cc(CN2CCOCC2)c(N)cn1
inactive: [1] 65.2 µM | [3] 28.6 µM | [4] 63.1 µM | [6] 48.2 µM | [7] 18.7 µM | [8] 31.4 µM | [9] 48.1 µM | [10] 31 µM | [11] 56.9 µM | [12] 36 µM | [13] 44.4 µM | [14] 62.1 µM | [15] 28.6 µM | [16] 42.4 µM
